This is an account of results in patent US8093288B2, “Genipin derivatives and uses thereof” (Beth Israel Deaconess Medical Center, priority 2003, dated 2012).

Type in all cases: cell-based
In one assay the test system is isolated thymocytes. As to the kind of experiment: Proton leak in isolated thymocytes. The text has this:
(§1) It has been shown that addition of high levels of superoxide to isolated mitochondrial stimulates proton leak if UCP1, UCP2 or UCP3 (collectively “UCPs”) are present.

The test system of assay [1] is thymocytes that are deficient in UCP2. As to the kind of experiment: Proton leak in thymocytes deficient in UCP2.
Text: as §1

For another assay, the system named is isolated islets. The experiment in a line: ATP levels and insulin secretion in isolated islets.
Text: as §1

The next assay concerns UCP2 deficient islets. As to the kind of experiment: ATP levels and insulin secretion in UCP2 deficient islets.
Text: as §1

The test system of assay [2] is pancreatic islets from wildtype mice. As to the kind of experiment: Insulin secretion in isolated pancreatic islets from wildtype mice. Conditions: 5.5 mM glucose; 5 μM D1; 37° C. for 60 min; WT islets; FIG. 11C. As to the method: As used or herein, pancreatic islets from wildtype and UCP2 knockout mice were isolated according to a method used for rats (Cawthorn and Chan, Mol. Cell. Endocrinol. 1991, 75:197-204, the entire teachings of which are incorporated herein by reference), except that the total exposure to type XI collagenase (Worthington Biochemical Co., NJ) was 30 min. and the Ficoll gradient was altered to layers of 25%, 23%, 21%, and 11%. Islets were harvested from the 11%-21% interface.
Islets were cultured in RPMI medium containing 11.0 mM glucose and supplemented with 1% penicillin-streptomycin. 7.5% fetal bovine serum (all from Gibco/BRL, Burlington, ON), and 10 mM Hepes (Sigma). After culturing for 20-24 hr, the islets were transferred to microcentrifuge tubes, pelleted (800 g for 5 min), and the medium aspirated and replaced with 1.0 mL DME medium containing 1% gelatin and 5.5 mM glucose with no genipin (control), 50 nM genipin, 0.5 μM genipin, and 5 μM genipin. For insulin secretion studies, the three islets were incubated per tube. After incubation at 37° C. for 60 min., the islets were centrifuged. The supernatant was collected and stored at −80° C., and then later assayed for insulin using Rat Insulin ELISA Kit (Cat. No. INSKR020, Crystal Chem., Inc., Chicago, Ill.).
FIGS. 11B and 11C show their effects on insulin secretion. Pancreatic islets were isolated from WT or UCP2 knockout (KO) mice. […]

The structures appear in SMILES notation.

Turning to `O=C(O)c1ccc(/C2=C3\C=CC(=N3)/C(c3ccc(C(=O)O)cc3)=c3/cc/c4[n]3[Mn]([Cl])[n]3c2ccc3/C(c2ccc(C(=O)O)cc2)=C2/C=CC(=N2)\C=4c2ccc(C(=O)O)cc2)cc1` [MnTBAP], the proton leak result with isolated thymocytes is recorded as “decreases proton leak”. For the same compound, the proton leak result in assay [1] is recorded as “not present”. Moreover, in the assay on isolated islets, the ATP levels entry is recorded as “increased ATP levels” and the insulin secretion result is “increased insulin secretion”. Further, in the assay on UCP2 deficient islets, the “ATP levels and insulin secretion” value is given as “absent”.

`COC(=O)C1=CO[C@@H]2OC[C@@]3(O)[C@@H]2[C@@H]1C[C@H]3Cl` [compound 55]: the insulin secretion result in assay [2] was “increases insulin secretion in WT islets”.
